Reference: patent US20240317736A1, “DEUTERATED DERIVATIVE AS ATX INHIBITOR, AND APPLICATION THEREOF” (Xizang Haisco Pharmaceutical Co., Ltd., priority 2020, published 2024)
Read-outs that look alike come from different tables or passages of the source.

Experiments:
[1] = target: T1, autocrine motility factor (Homo sapiens, UniProt Q13822); assay: Inhibition of LPA formation in mixed ex vivo human plasma; assay type: biochemical; conditions: 37° C., 2 h
T1 construct: Whole blood was anticoagulated with heparin and centrifuged, and then plasma was collected; from tissue; host or cells: pooled human plasma (heparin-anticoagulated whole blood)
Protocol: Autocrine motility factor is a phosphodiesterase in plasma that converts lysophosphatidylcholine (LPC) to lysophosphatidic acid (LPA). Therefore, the formation of LPA can be used to evaluate the potency of an autocrine motility factor inhibitor. The potency of the compound in mixed ex vivo human plasma was evaluated.
Whole blood was anticoagulated with heparin and centrifuged, and then plasma was collected. 5 μL of gradient-diluted test compounds or DMSO was added to 95 μL of plasma and incubated at 37° C. for 2 h. After that, a stop buffer (40 mM disodium hydrogen phosphate buffer, containing 30 mM of citric acid, pH=4) was added. LPA in plasma was detected by LC-MSMS before and after incubation. In order to determine the concentration of LPA 18:2 or LPA 20:4 in the plasma in study, calibration standard substances at 20000 ng/mL, 10000 ng/mL, 5000 ng/ml, 2000 ng/ml, 1000 ng/mL, 500 ng/mL, 200 ng/ml, 100 ng/mL, 50 ng/ml, 20 ng/mL and 10 ng/ml for LPA 18:2 or LPA 20:4 were prepared by performing serial dilution in butanol. 3 μL of calibration standard solution was added to 27.0 μL of blank plasmas in each 1.5 mL microcentrifuge tube to produce 1× calibration standard substances. 30.0 μL of standard substances or plasma in study was added to each 1.5 mL microcentrifuge tube. 200 μL of butanol (containing 25.0 ng/mL LPA 17:0 for internal control) was added to each 1.5 mL microcentrifuge tube containing the plasma in study or calibration standard substance. Vortex oscillation was performed for 1 min, and centrifugation was performed at 10000 rpm for 10 min. 180 μL of the supernatant was transferred to a 96-well plate, and LC/MS/MS was used together with the standard substance to quantify the concentration of LPA 18:2 in the plasma. In short, 8 μL of the solution was injected, and LC-MS/MS analysis using an ACQUITY UPLC BEH C18 column (2.1×50 mm, 1.7 μm) was performed, wherein mobile phase A [20 mM NH4OAC aqueous solution (0.1% FA)] and mobile phase B [5 mM NH4OAC aqueous solution/0.2% FA in ACN=5:95] were used. The parameters of a mass spectrometer for LPA 18:2 were optimized by means of deprotonation of molecular ions. For LPA 18:2 at m/z 433.2([M−H]−), LPA 20:4 at 457.2, and LPA 18:2 and LPA 20:4 both at m/z 152.8, abundant product ions were obtained. Quantitative data were obtained in a multiple reaction monitoring (MRM) negative electrospray ionization mode.
The inhibition rates of compounds at different concentrations on LPA formation were determined by comparing the changes of LPA levels in incubated and unincubated plasma. The IC50 of the compounds was calculated as a calculation inhibition rate, and the relative concentration at each well=the concentration at each well−the average concentration at baseline.
Inhibition rate %=(average relative concentration at control well−average relative concentration at test well)/average relative concentration at control well×100%. The curve was plotted with the inhibition rates as a y axis and the compound concentrations as an x axis, and fitting was performed by GraphPad Prism7.0 using log (inhibitor) and normalized response (variable slope).

[2] = Pharmacokinetic test in mice; assay type: in vivo; conditions: male, C57, mouse, plasma; for Cmax: read-out: C0 or Cmax
Protocol: Test objective: the pharmacokinetic characteristics and bioavailability of test compounds in mice were evaluated.
Test animals: thirty-six C57 male mice, about 25 g, 6-8 weeks old, purchased from Chengdu Ddossy Experimental Animals Co., Ltd., with the production license number of SCXK (CHUAN) 2020-030.
Vehicle for intravenous administration: 5% DMA+5% Solutol+90% Saline; vehicle for intragastric administration: 0.5% MC
(§1) Before and after the administration, 0.06 mL of blood was taken from the orbits under isoflurane anaesthesia and placed in an EDTAK2 centrifuge tube. The blood was centrifuged at 5000 rpm at 4° C. for 10 min, and plasma was collected. Time points for blood collection: 0 min, 5 min, 15 min, 30 min, 1 h, 2 h, 4 h, 6 h, 8 h, 10 h and 24 h. Before analysis and detection, all plasma samples were stored at −80° C.

[3] = Pharmacokinetic test in dogs; assay type: in vivo, male beagles; conditions: male, beagle, dog, plasma; for Cmax: read-out: C0 or Cmax
Protocol: Test objective: the pharmacokinetic characteristics and bioavailability of test compounds in dogs were evaluated.
Test animals: twelve male beagles, 8-10 kg, 0.5-1.5 years old, purchased from Beijing Marshall Biotechnology Co. Ltd., with the production license number of SCXK (JING) 2016-001.
Vehicle for intravenous administration: 5% DMSO+5% Solutol+90% Saline; • vehicle for intragastric administration: 1% DMSO+1% Solutol+98% (0.5% MC);
as §1, with “the administration, 1.0 mL of” for “the administration, 0.06 mL of”, “from the veins of the forelimbs and placed” for “from the orbits under isoflurane anaesthesia and placed”, “h, 10 h, 12 h and” for “h, 10 h and”

[4] = Pharmacokinetic test in monkeys; assay type: in vivo, Cynomolgus macaques; conditions: male, cynomolgus monkey, plasma; for Cmax: read-out: C0 or Cmax
Protocol: Test objective: the pharmacokinetic characteristics and bioavailability of test compounds in monkeys were evaluated.
Test animals: twelve male Cynomolgus macaques, 2.4-5.9 kg, 3-5.5 years old, purchased from Suzhou Xishan Zhongke Laboratory Animal Co., Ltd., with the production license number of SCXK (SU) 2018-0001.
Vehicle for intravenous administration: 5% DMSO+5% Solutol+90% Saline; • vehicle for intragastric administration: 1% DMSO+1% Solutol+98% (0.5% CMC-Na)
as §1, with “the administration, 1.0 mL of” for “the administration, 0.06 mL of”, “from the veins of the forelimbs and placed” for “from the orbits under isoflurane anaesthesia and placed”, “h, 10 h, 12 h and” for “h, 10 h and”

hERG potassium channel = hERG potassium channel (Homo sapiens, UniProt Q12809); assay: cell-based
hERG potassium channel, sequence (Q12809 whole entry): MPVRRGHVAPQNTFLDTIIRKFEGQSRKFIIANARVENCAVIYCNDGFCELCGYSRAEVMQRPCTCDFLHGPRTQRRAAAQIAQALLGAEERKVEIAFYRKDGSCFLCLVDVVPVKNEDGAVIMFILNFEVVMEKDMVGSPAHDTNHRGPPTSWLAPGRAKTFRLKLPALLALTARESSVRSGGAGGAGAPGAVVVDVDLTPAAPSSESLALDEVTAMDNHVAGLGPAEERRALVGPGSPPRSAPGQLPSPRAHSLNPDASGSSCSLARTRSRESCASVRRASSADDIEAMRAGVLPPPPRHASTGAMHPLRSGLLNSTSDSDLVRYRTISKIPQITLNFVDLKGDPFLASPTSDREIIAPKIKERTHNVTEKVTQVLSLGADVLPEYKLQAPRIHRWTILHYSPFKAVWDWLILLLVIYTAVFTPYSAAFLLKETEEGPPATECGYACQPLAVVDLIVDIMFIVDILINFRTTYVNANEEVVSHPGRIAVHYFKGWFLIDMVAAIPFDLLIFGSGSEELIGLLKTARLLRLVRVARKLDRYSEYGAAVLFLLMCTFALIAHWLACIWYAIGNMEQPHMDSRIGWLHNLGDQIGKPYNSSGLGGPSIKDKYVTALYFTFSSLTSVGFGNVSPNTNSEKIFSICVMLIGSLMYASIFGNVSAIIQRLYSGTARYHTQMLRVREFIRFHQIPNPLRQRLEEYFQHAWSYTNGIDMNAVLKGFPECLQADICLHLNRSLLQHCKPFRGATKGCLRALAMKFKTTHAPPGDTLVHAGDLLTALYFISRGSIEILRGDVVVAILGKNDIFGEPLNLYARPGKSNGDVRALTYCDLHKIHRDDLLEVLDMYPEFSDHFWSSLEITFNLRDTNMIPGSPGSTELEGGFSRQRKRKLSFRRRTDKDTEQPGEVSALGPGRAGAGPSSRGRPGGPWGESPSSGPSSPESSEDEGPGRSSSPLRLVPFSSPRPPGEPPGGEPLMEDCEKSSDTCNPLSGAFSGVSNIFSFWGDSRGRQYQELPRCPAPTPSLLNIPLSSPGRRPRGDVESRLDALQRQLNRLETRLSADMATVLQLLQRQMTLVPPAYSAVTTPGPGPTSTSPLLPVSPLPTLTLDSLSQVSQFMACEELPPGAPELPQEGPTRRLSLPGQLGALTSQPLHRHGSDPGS
Protocol: The effect of the example compounds on the current of an hERG potassium channel (human Ether-à-go-go Related Gene potassium channel) was tested by 10 means of an electrophysiological manual patch-clamp method.
HEK293 cell lines stably expressing hERG ion channels were purchased from Invitrogen.
A test compound was firstly dissolved in DMSO and prepared into a stock solution with a final concentration of 30 mM. […] Five working solutions with different gradient concentrations were used to determine the potential inhibitory effect of the compound on the hERG potassium channel and used to fit a dose-response curve and calculate IC50.
A small slide carrying HEK293 cells in a culture dish was placed in a perfusion tank on a micromanipulator. • 2. […] The peak value of the tail current was the magnitude of hERG currents. • 9 The hERG currents used to detect the test compounds were continuously recorded for 120 seconds prior to administration, thereby evaluating the stability of test cells generating hERG currents. […] The inhibitory effects of the test compounds on hERG currents were tested as follows: firstly, the hERG current measured in the extracellular fluid containing 0.1% DMSO was used as a test baseline. […] Upon completion of each perfusion, waiting about 5 min allowed the compounds to be fully acted on the cells, and the hERG currents were recorded synchronously. […]

IC50 ([1]; LPA 18:2 by LC-MS/MS, read-out: IC50 for inhibiting LPA formation (18:2)): 42.7 nM
IC50 ([1]; LPA 20:4 by LC-MS/MS, read-out: IC50 for inhibiting LPA formation (20:4)): 44.5 nM
AUC ([2]; IV 1 mg/kg): 1490 ng·h/mL
half-life ([2]; IV 1 mg/kg): 1.56 h
Cmax ([2]; IV 1 mg/kg): 1110 ng/mL
AUC ([2]; PO 10 mg/kg): 9600 ng·h/mL
Tmax ([2]; PO 10 mg/kg): 0.25 h
half-life ([2]; PO 10 mg/kg): 2.14 h
bioavailability ([2]; PO 10 mg/kg vs IV 1 mg/kg): 64.5%
Cmax ([2]; PO 10 mg/kg): 1300 ng/mL
AUC ([3]; IV 1 mg/kg): 6840 ± 883 ng·h/mL
half-life ([3]; IV 1 mg/kg): 6.96 ± 1.5 h
Cmax ([3]; IV 1 mg/kg): 1490 ± 451 ng/mL
AUC ([3]; PO 2 mg/kg): 15900 ± 2980 ng·h/mL
Tmax ([3]; PO 2 mg/kg): 1.67 ± 0.58 h
half-life ([3]; PO 2 mg/kg): 7.19 ± 0.75 h
bioavailability ([3]; PO 2 mg/kg vs IV 1 mg/kg): 116 ± 22%
Cmax ([3]; PO 2 mg/kg): 1620 ± 176 ng/mL
AUC ([4]; IV 1 mg/kg): 2010 ± 621 ng·h/mL
half-life ([4]; IV 1 mg/kg): 2.96 ± 1 h
Cmax ([4]; IV 1 mg/kg): 1040 ± 116 ng/mL
AUC ([4]; PO 5 mg/kg): 3120 ± 492 ng·h/mL
Tmax ([4]; PO 5 mg/kg): 1.33 ± 0.58 h
half-life ([4]; PO 5 mg/kg): 4.02 ± 0.59 h
Cmax ([4]; PO 5 mg/kg): 657 ± 170 ng/mL
Structure (SMILES): [2H]C([2H])([2H])N(c1nc(-c2ccc(F)cc2)c(C#N)s1)c1c(CC)nn2cc(F)c(N3CCN(CC(=O)N4CC(O)C4)CC3)cc12 [Compound 3, 2-((2-ethyl-6-fluoro-5-(4-(2-(3-hydroxyazetidin-1-yl)-2-oxoethyl)piperazin-1-yl)pyrazolo[1,5-a]pyridin-3-yl)(methyl-d3)amino)-4-(4-fluorophenyl)thiazole-5-carbonitrile]
IC50 (hERG potassium channel): 23100 nM
